Experimental data: PubChem BioAssay AID248 (DTP/NCI, 2004)
“And” between values parts separate entries of the source, which are not always exact repeats. Equal values may be shown once. Inconclusive results and toxic doses are left out. Cut-off read from the data, not from the text of the source: active = T/C of 150% or more; inactive = T/C below 125%.

Test system: L1210 leukemia ip in BDF1 mice, survival T/C
Assay: NCI In Vivo Anticancer Drug Screen. Data for tumor model L1210 Leukemia (intraperitoneal) in B6D2F1 (BDF1) mice
Conditions: endpoint: mean survival time, higher = longer survival
Outline: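 Value reflects the ratio of survival in compound-treated mice to survival in vehicle-treated controls, with both groups carrying the same transplanted tumor.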

[1] = dose: 5.0 mg/kg/injection, schedule: Q01DX001 (ip), vehicle: saline
[2] = dose: 10.0 mg/kg/injection, schedule: Q01DX001 (ip), vehicle: saline
[3] = dose: 20.0 mg/kg/injection, schedule: Q01DX001 (ip), vehicle: saline
[4] = dose: 100.0 mg/kg/injection, schedule: Q01DX001 (ip), vehicle: saline
[5] = dose: 200.0 mg/kg/injection, schedule: Q01DX001 (ip), vehicle: saline
[6] = dose: 100.0 mg/kg/injection, schedule: Q01DX009 (ip), vehicle: Klucel (hydroxypropylcellulose) (HPC)
[7] = dose: 200.0 mg/kg/injection, schedule: Q01DX009 (ip), vehicle: Klucel (hydroxypropylcellulose) (HPC)
[8] = dose: 200.0 mg/kg/injection, schedule: Q04DX003 (ip), vehicle: Klucel (hydroxypropylcellulose) (HPC)
[9] = dose: 400.0 mg/kg/injection, schedule: Q01DX009 (ip), vehicle: Klucel (hydroxypropylcellulose) (HPC)
[10] = dose: 400.0 mg/kg/injection, schedule: Q04DX003 (ip), vehicle: Klucel (hydroxypropylcellulose) (HPC)
[11] = dose: 100.0 mg/kg/injection, schedule: Q04DX002 (ip), vehicle: Klucel (hydroxypropylcellulose) (HPC)
[12] = dose: 200.0 mg/kg/injection, schedule: Q04DX002 (ip), vehicle: Klucel (hydroxypropylcellulose) (HPC)
[13] = dose: 100.0 mg/kg/injection, schedule: Q04DX003 (ip), vehicle: saline with Tween-80
[14] = dose: 200.0 mg/kg/injection, schedule: Q04DX003 (ip), vehicle: saline with Tween-80
[15] = dose: 400.0 mg/kg/injection, schedule: Q04DX003 (ip), vehicle: saline with Tween-80

Measured: T/C

C[N+](C)(C)Cc1ccccc1
inactive: dose: 1.56 mg/kg/injection, schedule: Q01DX009 (ip), vehicle: saline 102 % of control | dose: 3.12 mg/kg/injection, schedule: Q01DX009 (ip), vehicle: saline 91 % of control | [1] 98 % of control | dose: 6.25 mg/kg/injection, schedule: Q01DX009 (ip), vehicle: saline 117 % of control | dose: 6.5 mg/kg/injection, schedule: Q01DX009 (ip), vehicle: saline 100 % of control | [2] 102 % of control and 109 % of control | dose: 12.0 mg/kg/injection, schedule: Q04DX003 (ip), vehicle: saline 113 % of control | dose: 12.5 mg/kg/injection, schedule: Q01DX009 (ip), vehicle: saline 100 % of control | [3] 98 % of control and 91 % of control | dose: 25.0 mg/kg/injection, schedule: Q01DX009 (ip), vehicle: saline 99 % of control and 107 % of control | dose: 25.0 mg/kg/injection, schedule: Q04DX003 (ip), vehicle: saline 87 % of control | dose: 50.0 mg/kg/injection, schedule: Q01DX009 (ip), vehicle: saline 96 % of control | dose: 100.0 mg/kg/injection, schedule: Q01DX009 (ip), vehicle: saline 96 % of control

O=C1C(=O)c2ccc(Br)cc2C(O)=C1C(c1ccccc1)c1ccccc1
inactive: [4] 100 % of control | [5] 106 % of control | dose: 400.0 mg/kg/injection, schedule: Q01DX001 (ip), vehicle: saline 96 % of control

CS(=O)(=O)NC(=O)NCCCl
inactive: dose: 100.0 mg/kg/injection, schedule: Q01DX001 (ip), vehicle: other 95 % of control | dose: 200.0 mg/kg/injection, schedule: Q01DX001 (ip), vehicle: other 95 % of control | dose: 400.0 mg/kg/injection, schedule: Q01DX001 (ip), vehicle: other 98 % of control

NC(N)=Nc1cccc(OCCCOc2ccccc2)c1
inactive: dose: 150.0 mg/kg/injection, schedule: Q01DX001 (ip), vehicle: saline with Tween-80 88 % of control | dose: 300.0 mg/kg/injection, schedule: Q01DX001 (ip), vehicle: saline with Tween-80 94 % of control

CC1(C)C/C(=C\c2ccc(Br)cc2)C(=O)c2ccccc21
inactive: [6] 98 % of control | dose: 100.0 mg/kg/injection, schedule: Q04DX003 (ip), vehicle: Klucel (hydroxypropylcellulose) (HPC) 106 % of control | [7] 95 % of control | [8] 106 % of control | [9] 101 % of control | [10] 104 % of control

COc1ccc([P+](=S)SS[P+](=S)c2ccc(OC)cc2)cc1 (centres undefined)
inactive: dose: 100.0 mg/kg/injection, schedule: Q04DX002 (ip), vehicle: saline with Tween-80 101 % of control | dose: 200.0 mg/kg/injection, schedule: Q04DX002 (ip), vehicle: saline with Tween-80 97 % of control

CC1CCC(C)(C)CC1(C)c1cc(CN(C)C)c(O)c(CN(C)C)c1 (centres undefined)
inactive: dose: 12.5 mg/kg/injection, schedule: Q04DX003 (ip), vehicle: acetone 93 % of control | dose: 25.0 mg/kg/injection, schedule: Q04DX003 (ip), vehicle: acetone 98 % of control | dose: 50.0 mg/kg/injection, schedule: Q04DX003 (ip), vehicle: acetone 90 % of control

COc1ccc([N+](=O)[O-])cc1NC(=O)Nc1c(C)n(C)n(-c2ccccc2)c1=O
inactive: dose: 50.0 mg/kg/injection, schedule: Q01DX009 (ip), vehicle: Klucel (hydroxypropylcellulose) (HPC) 108 % of control | [6] 105 % of control | [7] 97 % of control

C=C(C)COB(OCC(=C)C)OCC(=C)C
inactive: dose: 25.0 mg/kg/injection, schedule: Q01DX009 (ip), vehicle: saline with Tween-80 100 % of control | dose: 50.0 mg/kg/injection, schedule: Q01DX009 (ip), vehicle: saline with Tween-80 105 % of control | dose: 100.0 mg/kg/injection, schedule: Q01DX009 (ip), vehicle: saline with Tween-80 94 % of control

CC(C)(C)OOC(=O)Nc1ccc(Cl)cc1
inactive: dose: 200.0 mg/kg/injection, schedule: Q01DX001 (ip), vehicle: saline with Tween-80 89 % of control | dose: 400.0 mg/kg/injection, schedule: Q01DX001 (ip), vehicle: saline with Tween-80 92 % of control

CN(C(=O)C1C(C(=O)O)C2(Cl)C(Cl)=C(Cl)C1(Cl)C2(Cl)Cl)C1CCCCC1 (centres undefined)
inactive: [11] 110 % of control | [12] 98 % of control

NCCCCC(N)C(=O)Nc1ccc(Nc2ccc(NC(=O)C(N)CCCCN)cc2)cc1 (centres undefined)
inactive: [1] 92 % of control | [2] 90 % of control | [3] 92 % of control | dose: 40.0 mg/kg/injection, schedule: Q01DX001 (ip), vehicle: saline 93 % of control | dose: 80.0 mg/kg/injection, schedule: Q01DX001 (ip), vehicle: saline 93 % of control

CNCCN(C)CCN(C)Cc1ccc(OC)cc1
inactive: dose: 25.0 mg/kg/injection, schedule: Q01DX009 (ip), vehicle: water 105 % of control | dose: 50.0 mg/kg/injection, schedule: Q01DX009 (ip), vehicle: water 102 % of control | dose: 100.0 mg/kg/injection, schedule: Q01DX009 (ip), vehicle: water 100 % of control | dose: 200.0 mg/kg/injection, schedule: Q01DX009 (ip), vehicle: water 107 % of control

CCOc1cc(C#N)c(OCC)cc1N
inactive: [4] 103 % of control | [5] 101 % of control

Cc1ccc2nc(C#N)c(C#N)nc2c1
inactive: dose: 6.25 mg/kg/injection, schedule: Q01DX009 (ip), vehicle: Klucel (hydroxypropylcellulose) (HPC) 106 % of control | dose: 12.5 mg/kg/injection, schedule: Q01DX009 (ip), vehicle: Klucel (hydroxypropylcellulose) (HPC) 97 % of control | dose: 25.0 mg/kg/injection, schedule: Q01DX009 (ip), vehicle: Klucel (hydroxypropylcellulose) (HPC) 95 % of control and 89 % of control

Cc1c2oc3c(C)ccc(C(=O)NCCN4CCCCC4)c3nc-2c(C(=O)NCCN2CCCCC2)c(N)c1=O
inactive: dose: 100.0 mg/kg/injection, schedule: Q04DX002 (ip), vehicle: saline 103 % of control | dose: 200.0 mg/kg/injection, schedule: Q04DX002 (ip), vehicle: saline 109 % of control

CC1(C)NC(=O)N(Cc2ccccc2)C1=O
inactive: [6] 94 % of control | [13] 98 % of control | [7] 97 % of control | [14] 110 % of control | [9] 100 % of control | [15] 105 % of control

CCCNC(=O)Oc1cccc2cccnc12
inactive: [6] 93 % of control and 95 % of control | [11] 97 % of control and 105 % of control | [7] 101 % of control and 112 % of control | [12] 102 % of control and 103 % of control | [9] 95 % of control

CCCCCCCCCC(=O)OCCN1CCN(CCCN2c3ccccc3Sc3ccc(C(F)(F)F)cc32)CC1
inactive: dose: 1.56 mg/kg/injection, schedule: Q01DX009 (ip), vehicle: alcohol 107 % of control | dose: 25.0 mg/kg/injection, schedule: Q04DX003 (ip), vehicle: saline with Tween-80 106 % of control

Cc1ccc(NC(=S)NC(Cc2ccccc2)c2ccccc2)cc1 (centres undefined)
inactive: [6] 97 % of control | [7] 94 % of control | [8] 93 % of control | [9] 96 % of control | [10] 102 % of control

CCCCCCCCCCCCCCCCCCOB(OCCCCCCCCCCCCCCCCCC)OCCCCCCCCCCCCCCCCCC
inactive: [13] 108 % of control | [14] 108 % of control | [15] 97 % of control
